Experimental data: US20080208179A1, “METHODS OF INCREASING SKIN PERMEABILITY BY TREATMENT WITH ELECTROMAGNETIC RADIATION” (Reliant Technologies, Inc., priority 2006, published 2008)

Columns and labels:
Assay type in all cases: in vitro ADME
[1] = In vitro permeation of ascorbic acid through fractional laser treated ex vivo human skin (Example 6, 60 μm treatment zone size); details: for Retention Ratio / Total Uptake Ratio: delivery mode not given; for Cumulative permeation / Enhancement ratio (total uptake by treatment/total uptake in control) / Retention / Total uptake: 90 min
Procedure: In vitro permeation studies were performed on untreated and treated human skin to determine if treatment of the skin with fractional laser radiation increased skin permeability to ascorbic acid. The treatment consisted of exposing the skin in vitro to fractional laser radiation. This study also evaluated the effect of using the laser radiation using the contact delivery mode and the non-contact delivery mode.
Ex vivo skin: All ex vivo laser treatments were performed using a 1550 nm laser system on freshly excised human abdominal skin (Fitzpatrick skin type II).
Laser parameters: Arrays of single mode Gaussian beams of 60 μm 1/e^2 diameter at incidence were delivered to the surface of the skin specimen in each treatment, using contact and non-contact tips. For the contact delivery mode, the laser radiation was delivered through a sapphire window in a contact tip which abutted the specimen. For the non-contact delivery mode, the laser radiation was delivered through a contact tip without the sapphire window; thus, the laser incidence occurred at the air-tissue interface. The laser pulse energies tested for ascorbic acid uptake measurements were 10 and 20 mJ. […]
Ascorbic acid formulation: Topical vitamin C solution contained L-ascorbic acid 15% (VWR International, West Chester, Pa.), ferulic acid 0.5%, and vitamin E 1% buffered to a pH of 3.2±0.2 with triethanolamine (Lin et al, 2005). Ascorbic acid was freshly prepared avoiding light exposure just prior to each experiment.
(§1) Ascorbic acid permeation studies: The uptake studies were carried out using skin permeation systems (LGA, Inc., Berkeley, Calif.) and 500 μm thick skin grafts from freshly excised human abdominal skin. Non-laser treated skin was used as a control. Immediately after laser treatment, each skin sample was mounted on a permeation system whose donor compartment was then filled with ascorbic acid solution (Lee et al, 2003). The entire arrangement was incubated to simulate body temperature. Aliquots were drawn at 5, 10, 15, 30, 60, and 90 min, and quantitatively analyzed for permeated ascorbic acid using high performance liquid chromatography (HPLC). After 90 min, each skin sample was washed thoroughly in saline, weighed, homogenized and centrifuged (Lee et al, 2003). This was followed by HPLC analysis to determine the retained ascorbic acid value. The measured retention was then normalized to the effective area of skin sample through which permeation occurred. Each experiment constituted a total of 5 individual runs (n=5).
(§2) Data analysis: The total uptake was taken as the sum of the permeated and retained ascorbic acid. The permeation values were calculated at each time point and plotted as a cumulative value. The uptake enhancement ratio represents the total ascorbic acid uptake for laser treated skin divided by the total uptake for untreated skin at 90 min.

[2] = In vitro permeation of ascorbic acid through fractional laser treated ex vivo human skin (Example 7, 85 μm spot size); details: for Cumulative permeation / Enhancement ratio (total uptake in treated sample/total uptake in control) / Retention / Total uptake: 90 min; for Normalized cumulative permeation at 10 mJ @ 2000 MTZ/cm2 relative to 20 mJ @ 1000 MTZ/cm2: by 90 min
Procedure: In vitro permeation studies were performed on untreated and treated human skin to determine if treatment of the skin with fractional laser radiation increased skin permeability to ascorbic acid.
A modified 1550 nm Fraxel® SR laser system was operated as previously described by Bedi et al., Lasers Surg Med, 2007 February; 39(2):145-55. Arrays of single mode Gaussian beams of 85 μm 1/e^2 diameter at incidence were delivered to the surface of the skin specimen in each treatment, using contact and non-contact tips. The contact tip abutted the specimen through a sapphire window through which the laser beam was irradiated. The non-contact tip omitted the sapphire window; thus, the laser incidence occurred at the air-tissue interface. The laser pulse energies tested for ascorbic acid uptake measurements were 10 and 20 mJ. For each 10 mJ treatment, 8 passes at 250 microscopic treatment zones (MTZs) per cm^2 were made at a constant velocity of 1.0 cm per second producing a final spot density of 2000 MTZs per cm^2; for each 20 mJ treatment, 4 passes at 250 microscopic treatment zones (MTZs) per cm^2 were made at a constant velocity of 1.0 cm per second producing a final spot density of 1000 MTZs per cm^2. These pulse energy and spot density combination parameters are similar to those used in a typical clinical NFR™ treatment session. Histologic examination was performed for pulse energies ranging from 6 to 40 mJ at a fixed spot size of 85 μm. The pulse durations ranged from 0.24 to 1.6 msec per pulse.
Topical vitamin C solution contained L-ascorbic acid 15% (VWR International, West Chester, Pa.), ferulic acid 0.5%, and vitamin E 1% buffered to a pH of 3.2±0.2 with triethanolamine (Lin et al, 2005). Ascorbic acid was freshly prepared avoiding light exposure just prior to each experiment.
as §1, with “The uptake” for “Ascorbic acid permeation studies: The uptake”, “and 90 min from the diffusion chamber, and quantitatively” for “and 90 min, and quantitatively”
as §2, with “The” for “Data analysis: The”, “acid over the cross-sectional area of the skin through which uptake occurred.” for “acid.”

[3] = In vitro permeation of 5-Fluorouracil through fractional laser treated ex vivo human skin (Example 8)
Procedure: In vitro permeation studies were performed on untreated and treated ex vivo human skin to determine if treatment of the skin with fractional laser radiation increased skin permeability to a 0.5% (w/v) 5-Fluorourocil solution. The treatment was conducted using the methods outlined in Examples 6 and 7 using a Fraxel Re:store™ laser system (Reliant Technologies, Mountain View, Calif., USA). The treatment parameters used included a laser pulse energy of 10 mJ, a 60 μm incident optical spot size, and a final spot density of 2000 MTZ/cm^2. The skin graft thickness used was 500 μm. The experiment consisted of a total of 6 individual runs (n=6). The uptake study was conducted using an infinite dose regimen.
The total uptake was taken as the sum of the permeated and retained 5-Fluorouracil. The permeation values were calculated at each time point and plotted as a cumulative value in FIG. 16. Over the course of the study (24 hours), the uptake of 5-Fluorouracil from the untreated skin (control) remained below 0.2 mg/cm^2, while the uptake of 5-Fluorouracil from the laser treated skin approached 1.4 mg/cm^2 after 24 hours.

[4] = 20 mJ, 1000 TZ/cm2, contact mode
[5] = 20 mJ, 1000 TZ/cm2, non-contact mode
[6] = 1550 nm, 60 μm, 20 mJ, contact mode, 1000 TZ/cm2
[7] = 1550 nm, 60 μm, 20 mJ, non-contact mode, 1000 TZ/cm2
[8] = control, non-laser treated skin
[9] = skin group not stated (sentence follows the control value)
[10] = 1550 nm, 85 μm, 10 mJ, contact mode, 2000 MTZ/cm2
[11] = 1550 nm, 85 μm, 20 mJ, contact mode, 1000 MTZ/cm2
[12] = 1550 nm, 85 μm, 20 mJ, non-contact mode, 1000 MTZ/cm2
[13] = 1550 nm, 85 μm, non-contact mode, pulse energy 20 mJ, text b229 prints 10 mJ @ 2000 MTZ/cm2
[14] = 10 mJ, 60 μm spot size, 2000 MTZ/cm2, 0.5% (w/v) solution, n=6

O=C1O[C@H]([C@@H](O)CO)C(O)=C1O [ascorbic acid, L-ascorbic acid]
Retention Ratio ([1]; 10 mJ, 1000 TZ/cm2): 1.8
Total Uptake Ratio ([1]; 10 mJ, 1000 TZ/cm2): 2.9
Retention Ratio ([1]; 10 mJ, 2000 TZ/cm2): 2.0
Total Uptake Ratio ([1]; 10 mJ, 2000 TZ/cm2): 4.2
Retention Ratio ([1]; 20 mJ, 500 TZ/cm2): 1.3
Total Uptake Ratio ([1]; 20 mJ, 500 TZ/cm2): 7.0
Retention Ratio (retained by treated skin / retained by control skin) [1, 4]: 2.1
Total Uptake Ratio (treated skin / control skin) [1, 4]: 5.3
Retention Ratio (retained by treated skin / retained by control skin) [1, 5]: 3.8
Total Uptake Ratio (treated skin / control skin) [1, 5]: 9.6
Retention Ratio ([1]; 20 mJ, 1000 TZ/cm2): 3.8
Total Uptake Ratio ([1]; 20 mJ, 1000 TZ/cm2): 9.6
Cumulative permeation over time, non-contact mode compared with contact mode ([1]; 20 mJ, FIG. 12): higher permeation levels
Cumulative permeation [1, 6]: 0.20 ± 0.03 mg
Enhancement ratio (total uptake by treatment/total uptake in control) [1, 6]: 5.3
Retention [1, 6]: 0.13 ± 0.01 mg
Total uptake [1, 6]: 0.42 ± 0.06 mg/cm2
Cumulative permeation [1, 7]: 0.37 ± 0.14 mg
Enhancement ratio (total uptake by treatment/total uptake in control) [1, 7]: 9.6
Retention [1, 7]: 0.24 ± 0.03 mg
Total uptake [1, 7]: 0.77 ± 0.18 mg/cm2
Cumulative permeation [1, 8]: below
Retention [1, 8]: 0.06 ± 0.01 mg
Total uptake [1, 8]: 0.08 ± 0.01 mg/cm2
Share of the total uptake contributed by permeation [1, 9]: ~70%
Share of the total uptake contributed by retention [1, 9]: Approximately 30%
Improvement of uptake in non-contact mode over contact mode at identical laser parameters ([2]; 10 mJ @ 2000 MTZ/cm2): ~4 ×
Improvement of uptake in non-contact mode over contact mode at identical laser parameters ([2]; 20 mJ @ 1000 MTZ/cm2): ~3 ×
Cumulative permeation [2, 10]: 0.49 ± 0.07 mg
Enhancement ratio (total uptake in treated sample/total uptake in control) [2, 10]: 6.6
Retention [2, 10]: 0.22 ± 0.02 mg
Total uptake [2, 10]: 0.90±0.07 mg/cm2
Cumulative permeation [2, 11]: 0.27 ± 0.10 mg
Enhancement ratio (total uptake in treated sample/total uptake in control) [2, 11]: 3.6
Retention [2, 11]: 0.12 ± 0.02 mg
Total uptake [2, 11]: 0.49±0.14 mg/cm2
Cumulative permeation [2, 12]: 0.90 ± 0.27 mg
Enhancement ratio (total uptake in treated sample/total uptake in control) [2, 12]: 10.3
Retention [2, 12]: 0.19 ± 0.02 mg
Total uptake [2, 12]: 1.40±0.31 mg/cm2
Cumulative permeation ([2]; 1550 nm, 85 μm, non-contact mode, pulse energy 20 mJ, text b227 prints 10 mJ @ 2000 MTZ/cm2): 2.41 ± 0.44 mg
Retention ([2]; 1550 nm, 85 μm, non-contact mode, pulse energy 20 mJ, text b228 prints 10 mJ @ 2000 MTZ/cm2): 0.40 ± 0.09 mg
Enhancement ratio (total uptake in treated sample/total uptake in control) [2, 13]: 26.3
Total uptake [2, 13]: 3.58±0.54 mg/cm2
Permeation into the diffusion chamber ([2]; all conditions of laser treatment tested): observed to permeate into the diffusion chamber
Normalized cumulative permeation at 10 mJ @ 2000 MTZ/cm2 relative to 20 mJ @ 1000 MTZ/cm2 ([2]; contact mode): approximately 2 ×
Total uptake at 2000 MTZ/cm2 relative to 1000 MTZ/cm2 within the respective treatment mode ([2]; contact or non-contact, regardless of pulse energy (10 mJ or 20 mJ)): approximately two or more times
Retention [2, 8]: 0.11 ± 0.01 mg
Total uptake [2, 8]: 0.14±0.01 mg/cm2
Normalized cumulative permeation at 10 mJ @ 2000 MTZ/cm2 relative to 20 mJ @ 1000 MTZ/cm2 ([2]; non-contact mode): more than twice
Permeation measured by HPLC ([2]; non-irradiated ex vivo skin, up to 90 min after application): no permeation
Time until permeation was demonstrated ([2]; skin treated at pulse energies of 10 mJ and 20 mJ, contact mode, FIG. 13): ≤ 5 min

O=c1[nH]cc(F)c(=O)[nH]1 [5-Fluorouracil]
Permeation, Ratio ± Standard Deviation [3, 14]: 37.7 ± 10.6
Retention, Ratio ± Standard Deviation [3, 14]: 2.4 ± 0.8
Uptake, Ratio ± Standard Deviation [3, 14]: 20.3 ± 5.3
Uptake ([3]; laser treated skin, 10 mJ, 60 μm, 2000 MTZ/cm2, after 24 hours): ~1.4 mg/cm^2
Uptake ([3]; untreated skin (control), over 24 hours): below 0.2 mg/cm^2
